Measurements: publication PMC11784013, “Potassium molybdate blocks APN-dependent coronavirus entry by degrading receptor via PIK3C3-mediated autophagy” (Journal of Virology, 2024)

Test system: TGEV Miller
Assay: TGEV challenge of neonatal piglets, PM therapy and prevention
Assay type: in vivo
Procedure: Fig 10 Oral administration of PM reduces TGEV pathogenicity by autophagic degradation of APN in piglets. (A) Experimental schemes for testing therapeutic and prophylactic efficacy of PM treatment against TGEV challenge in four groups of piglets. (B) Viral shedding was measured by RT-qPCR every 12 h postinfection. (C) TGEV genome copy numbers of duodenum, jejunum, and ileum were detected by RT-qPCR, and APN, PIK3C3, P62, and TGEV N in the small intestine were determined by western blot from piglets sacrificed at 24 hpi. (D) IFA of TGEV N and APN in different segments of the small intestine from piglets sacrificed at 24 hpi. Scale bar: 50 µm. Results are presented as mean ± SD of data from three independent experiments. **, P ≤ 0.01; ***, P ≤ 0.001.
Small intestinal tissues were collected, fixed for 24 h in 10% formalin, dehydrated according to the standard protocol, embedded in paraffin, and subjected to hematoxylin and eosin staining by standard procedures. For immunofluorescence analysis, Organoid monolayers or ST cells were fixed with 4% paraformaldehyde for 20 min and then permeabilized with 0.1% Triton X-100 (Beyotime, China, ST797) for 20 min at 37°C. Organoid monolayers or ST cells were blocked with 5% BSA (Biofroxx, Germany, 4240GR100) for 1 h and then labeled with primary antibodies overnight at 4°C. After rinsing, the sections were incubated with secondary antibodies for 1 h at room temperature. Next, 4’,6-diamidino-2-phenylindole (DAPI; Beyotime, China, C1006) was used to stain the nuclei. After washing, the organoid monolayers or ST cells were visualized using confocal laser-scanning microscopy (Zeiss LSM 900, Germany). Apical-out porcine intestinal organoids or small intestinal tissues were stained with primary and secondary antibodies and visualized using confocal laser-scanning microscopy (Zeiss LSM 900, Germany) according to the manufacturer’s protocol ([28]).
Neonatal pigs spontaneously delivered from sows were confirmed to be negative for TGEV by RT-qPCR and enzyme-linked immunosorbent assay. For the cytotoxicity and pharmacokinetic parameters of the PM, three piglets were orally administered PM (100 mg/kg), and the serum was collected by venipuncture at 0, 1, 2, 4, 6, 8, 10, 12, 16, and 24 h after oral administration of PM for cytotoxicity assays and pharmacokinetic parameter determination. For antiviral animal experiments, piglets were randomly separated into four groups: the mock group ([3]), TGEV group ([3]), TGEV-PM-therapy group ([3]), and TGEV-PM-prevention group ([3]). For the TGEV group, neonatal pigs were orally administered 1.245 × 10^8 PFU TGEV Miller for 24 h. In addition, piglets in the TGEV-PM therapy group were orally infected with 1.245 × 10^8 PFU TGEV Miller and then treated with PM (100 mg/kg). For the TGEV-PM-prevention group, three neonatal pigs were orally pretreated with PM (100 mg/kg) for 24 h and subsequently inoculated with 1.245 × 10^8 PFU TGEV Miller for 24 h. The body weights of all piglets were recorded, and anal swabs were collected every 12 h. At 24 hpi, all pigs were euthanized, and intestinal tissues were collected for RT-qPCR, western blot, IFA, and pathological examination. All animals were handled in strict accordance with good animal practice according to the Animal Ethics Procedures and Guidelines of the People’s Republic of China, and the study was approved by The Animal Administration and Ethics Committee of Lanzhou Veterinary Research Institute, Chinese Academy of Agricultural Sciences (Permit No. LVRIAEC-2020-030).

[1] = PM-therapy and PM-prevention groups vs control, 24 hpi, western blot
[2] = oral PM 100 mg/kg every 12 h, TGEV Miller 1.245 × 10^8 PFU oral

Structure (SMILES): [K+].[K+].[O]=[Mo](=[O])([O-])[O-] [PM, potassium molybdate]
- APN expression and TGEV N protein expression in small intestine (IFA) (24 hpi): almost entirely inhibited
- TGEV-induced villous atrophy of small intestinal segments (H&E) (PM 100 mg/kg, preventive or therapeutic treatment, 24 hpi): almost completely reversed TGEV-induced villous atrophy
- effect of PM alone on the small intestine (H&E) (PM treatment alone): did not have any impact on the small intestine
- TGEV burden throughout the small intestine (PM-therapy and PM-prevention groups vs control, 24 hpi, RT-qPCR and western blot): substantially lower
- APN and P62 expression throughout the small intestine [1]: substantially lower
- PIK3C3 expression in the small intestine [1]: significantly higher
- body weight loss [2]: TGEV group lost more weight and had higher viral shedding than those receiving PM
- viral shedding (anal swabs, RT-qPCR) [2]: TGEV group lost more weight and had higher viral shedding than those receiving PM
